This is an account of results in patent US9801895B1, “Cream formulation with amphotericin B and oil in water useful for topical application to mucous tissue and skin against diseases produced by leishmaniasis” (priority 2013, dated 2017).

Data set [1] is described as follows: In vivo toxicity in infected hamsters (body weight, serum analytes, histopathology). On the set-up: species or system Golden hamsters (Mesocricetus aerates). As to the method: (§1) The evaluation of the therapeutic response and toxicity of the cream formulation was carried out in the hamster model for cutaneous leishmaniasis (Robledo et al, 2012) using the Golden hamsters (Mesocricetus aerates). Animals were handled under the same micro and macro environmental conditions. Experimental groups were named accordingly: A. Cream product formulation once a day; B. Cream product formulation twice a day; C. Placebo once a day and D. Placebo twice a day. Additionally, two groups of animals were used as control groups. One of them (E) was used to evaluate meglumine antimoniate as a control medicine at the curative (120 mg/kg day×10 days) and the other group (F) were infected and untreated animals.
Hamsters were weighed weekly from the beginning of the experiment until three months after the end of the treatment.
Effect of Treatments on Serum Levels of BUN, Creatinine and ALT:

Data set [2] deals with reconstructed human tissue model (RHE). In kind it is cell-based. The text has this: In Vitro Skin Corrosion Test (Adapted from OECD Guideline No. 431):
To evaluate skin corrosion a reconstructed human tissue model (RHE) in three dimensions was used.

The conditions of data set [3]: rat, in vivo.
Excerpt: In Vivo Skin Absorption/Penetration. This Study Followed the OECD Test Guideline 427.
In this method the test substance is applied to the clipped skin of animals and is allowed to remain in contact with the skin for a fixed period of time under a non-occlusive cover to prevent ingestion of the test preparation. At the end of the exposure time the cover is removed and the skin is cleaned with an appropriate cleansing agent, the cover and the cleansing materials are retained for analysis and a fresh cover applied. Animals were exposed to the test preparation during 8 hours. One group was killed at the end of the exposure period. Other group was sacrificed at 48 hours and a third group was sacrificed at 72 hours after the end of exposure. The samples were assayed for concentration of amphotericin B by HPLC and the degree of percutaneous absorption was estimated.
Dosage and treatment groups: 12 animals were used, divided into three groups, which were applied the product under study. Four animals for each time interval: 8 h, 48 h and 72 h.
Environmental conditions and housing: The animals were randomly distributed in individual cages. During the experiment, water management and food was ad libitum. […]
Data set [4] has as its system Reconstructed Human corneal Epithelium tissue (HCE). The class given is cell-based. The protocol:
In Vitro Eye Irritation (Adapted from OECD Guideline No. 439):
For evaluation of eye irritation (cornea tissue) we used the Acute Eye irritation test using Reconstructed Human corneal Epithelium tissue (HCE).
Each test substance (cream product formulation, placebo, positive and negative controls) was applied topically. After 10 minutes, 2 hours and 24 hours of treatment cell viability was determined using MTT.

For data set [5] the following is noted: biphasic elimination described for amphotericin B; cited from earlier work.
For data set [6], the system named is Trypanosoma cruzi (T. cruzi). Conditions: given soon after infection at the onset of the acute phase; cited from earlier work.
A further data set deals with 3T3. The data set is described as follows: In vitro 3T3 NRU phototoxicity test (OECD Guideline No 432). The class given is cell-based.
The next data set relates to L. amazonensis. Description: In vivo therapeutic response in the hamster model for cutaneous leishmaniasis. Details: species or system Golden hamsters (Mesocricetus aerates). Conditions: intramuscular, once a day x 10 days, 120 mg/kg day. As to the method: In Vivo Therapeutic Response of Cream Product Formulation on L. amazonensis
as §1
The effectiveness of each treatment was assessed comparing the lesion sizes prior to and after treatments, using the following score system: cure (healing of 100% area and complete disappearance of the lesion); clinical improvement (reducing the size of the lesion in >30% of the area); clinical failure (reduction in the size of the lesion lower than 30% or increase in the size of the lesion); relapse (reactivation of lesion after cure).

Excerpt for 3T3: Phototoxicity/Photosensitisation Potential: The OECD Guideline No 432 was Followed.

For `C[C@@H]1[C@H](O)[C@@H](C)/C=C/C=C/C=C/C=C/C=C/C=C/C=C/[C@H](O[C@@H]2O[C@H](C)[C@@H](O)[C@H](N)[C@@H]2O)C[C@@H]2O[C@](O)(C[C@@H](O)C[C@@H](O)[C@H](O)CC[C@@H](O)C[C@@H](O)CC(=O)O[C@H]1C)C[C@H](O)[C@H]2C(=O)O` [amphotericin B, Amphotericin B], in data set [1], the kidney histopathology entry was “no significant changes”. In addition, the liver histopathology entry in data set [1] (one or two applications per day) is listed as “no lesions or significant changes”. Also, the skin corrosion result in data set [2] is “does not show skin corrosion”. For the same molecule, the “amphotericin B in urine” value in data set [3] is recorded as “not detected”. The “eye (corneal) irritation” value in data set [4] is on record as “no corneal irritation”. For the same molecule, in data set [5], the “elimination half life, last elimination phase” value was 15 days.
For `O=C(Cn1ccnc1[N+](=O)[O-])NCc1ccccc1` [benznidazole], the “effectiveness in curing the disease” value in data set [6] was approximately 100%.
As to `C[C@H]1c2cccc(O)c2C(=O)C2=C(O)[C@]3(O)C(=O)C(C(N)=O)=C(O)[C@@H](N(C)C)[C@@H]3[C@@H](O)[C@@H]21` [doxycycline], the phototoxicity classification entry in the data set on 3T3 was “phototoxic”. This molecule returned a PIF in the data set with 3T3 (exposure to light) of 9.3.
meglumine antimoniate registered an efficacy with L. amazonensis of 71%.
